According to paper PMC9428891 (Frontiers in Pharmacology, 2022):

Columns and labels:
[1] = biological target: T1, acetylcholinesterase (AChE) (Electrophorus electricus, UniProt O42275); experiment: biochemical; conditions: triplicate
T1 construct: purchased Sigma Aldrich C3389-2KU
Procedure: AChE inhibitory activity was evaluated as described previously with few modifications using a microtiter plate reader (Molecular Device, CA, United States) ([Hasan et al., 2005]). Initially, 100 mM of sodium phosphate buffer (140 µl) pH 8, 0.25 mM DTNB (10 µl), 0.5 mM of synthetic compounds dissolved in 20 µl of ethanol and AChE (20 µl) were mixed and incubated for 15–20 min at room temperature in a microtiter plate. Finally, 10 µl of substrate ACh (0.4 mM) was added and incubated at room temperature for 4–6 min. The reaction started after the addition of ACh was hydrolyzed by AChE in the presence of DTNB; a yellow-colored 5-thio-2-nitrobenzoate anion was formed, which indicates the reaction completion and was read at a wavelength of 412 nm. All experiments were performed in triplicate and were analyzed using the SoftMax Pro6.3 program (Molecular Device, CA, United States).
Percentage inhibition was calculated by % inhibition = (O.D control-O.D test well) / O.D control)×100.
IC50 was determined at various concentrations, and EZ-Fit EK was employed to calculate the IC50 values of the test compounds (Perrella Scientific Inc., Amherst, MA, United States).
In the current study, electric eel AChE was used in the laboratory to perform an AChE inhibitory assay, but for computational analysis, we used hAChE (4EY6). Therefore, homology modeling was performed to check the similarity between the electric eel and hAChE.

[2] = biological target: T1, acetylcholinesterase (AChE); experiment: biochemical; design: V max / V maxapp: unit not given here; conditions: for K m app / V maxapp: in the presence of compound; for Ki: read-out: K i ± SEM; for K m: substrate ACh
Procedure: Enzyme-substrate (ES) is the complex of AChE and acetylcholine, while P represents the product formed after the reaction’s completion. Dissociation constant values were calculated through Dixon plots, their secondary replots, and the Lineweaver-Burk plot ([Khan et al., 2021]).
The values of K m, K i, and V max were determined from Dixon and Lineweaver-Burk plots using no linear regression equation.
GraFit software ([Khan et al., 2021]) was utilized for plotting graphs. The values of the correlation coefficients, slopes, intercepts, and their standard errors were determined by the linear regression equation using the same program.
During kinetic studies, the reaction rate was measured and the effect of different concentrations of a substrate on the enzyme was investigated. The kinetic study of enzymes helped to determine the catalytic mechanism of enzymes. […] The rate of reaction [V] was plotted against various substrate concentrations [S] at constant enzyme concentration. Initially, the rate of reaction [V] increases as substrate concentration increases, and at higher [S], the enzyme becomes saturated, and the rate of reaction reaches V max, which is referred to as the maximum rate of reaction.
The dissociation constant K i values were found using three different methods. Primarily, from the Lineweaver-Burk plot, which is the reciprocal rate of reaction (1/V) versus reciprocal of substrate concentration (1/S), helps to determine the effect of inhibitor on the values of K m and V max. Secondly, the Dixon plot is the plot between the reciprocal of initial velocities (1/V) versus different concentrations of the compound. Finally, from secondary replot, the slopes of each line versus various concentrations of all compounds. Kinetic studies were carried out to determine the inhibition type, which helps to specify the mechanism of action of enzyme inhibition and the inhibitor binding moieties.

[3] = system: isolated rabbit jejunum, spontaneous contractions; experiment: Spasmolytic activity on spontaneously contracting isolated rabbit jejunum; conditions: mean ± SEM, n = 3
Procedure: (§1) The spasmolytic activity of the inhibitors was evaluated using isolated contracting rabbit jejunum ([Rahman et al., 2019]). Rabbits used in the current study were provided by Aga Khan Medical University, Karachi, Pakistan, weighing between 1.5 and 2.0 kg. The standard operating protocol has already been defined ([Choudhary et al., 2005]).
(§2) Calcium antagonistic activity was also performed and confirmed the relaxation of 80 mM K^+ produced contraction.

[4] = system: isolated rabbit jejunum, K+-induced contractions; experiment: Calcium antagonistic activity: relaxation of high K+ (80 mM) contracted isolated rabbit jejunum; conditions: mean ± SEM, n = 3
Procedure: as §1, §2
Schiff bases were also evaluated at high K^+ (80 mM) contracted isolated rabbit jejunum preparations for their spasmolytic effect, which was relaxed by all compounds (Table 3). […] Schiff bases represent a class of compounds showing a wide range of bioactivities, such as antimicrobial and anticancer activities. Schiff base compounds are the products of primary amines and condensation of carbonyl compounds, which are extensively investigated owing to their wide range of biomedical applications ([Sztanke et al., 2013]). […] The antispasmodic and Ca^+2 antagonist activity of Schiff base compounds was first reported and could be linked to the azomethine bond.

[5] = Viability of human neutrophils (WST-1 cytotoxicity test); format: cell-based; conditions: human neutrophils 1 × 10^7 cells/ml
Procedure: A cytotoxicity test was performed to determine the adverse effect of tested compounds on humans using neutrophil cells.
The absorbance is the mean of five experimental replicates.
The % viability of neutrophils was measured by the following formula: Percentage viability: […].

T1 sequence (O42275 24-633): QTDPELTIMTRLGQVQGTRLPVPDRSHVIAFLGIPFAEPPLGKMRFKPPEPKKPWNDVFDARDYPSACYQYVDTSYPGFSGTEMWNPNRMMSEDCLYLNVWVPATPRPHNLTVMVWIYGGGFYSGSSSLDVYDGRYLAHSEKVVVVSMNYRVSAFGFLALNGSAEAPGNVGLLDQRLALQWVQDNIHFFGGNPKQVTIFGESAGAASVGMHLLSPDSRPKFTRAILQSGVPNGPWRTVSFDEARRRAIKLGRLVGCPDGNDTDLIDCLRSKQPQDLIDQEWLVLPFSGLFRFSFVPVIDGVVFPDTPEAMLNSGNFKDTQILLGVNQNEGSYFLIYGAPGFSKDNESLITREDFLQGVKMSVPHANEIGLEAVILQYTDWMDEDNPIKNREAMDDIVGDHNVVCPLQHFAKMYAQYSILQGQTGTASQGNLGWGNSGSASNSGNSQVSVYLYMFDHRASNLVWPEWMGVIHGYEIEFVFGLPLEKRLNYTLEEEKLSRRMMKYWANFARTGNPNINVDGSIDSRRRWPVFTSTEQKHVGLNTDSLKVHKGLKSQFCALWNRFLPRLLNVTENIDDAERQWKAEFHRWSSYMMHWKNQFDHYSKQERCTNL

Structure (SMILES)	IC50 [1]	Type of inhibition [2]	V max [2]	K m app [2]	V maxapp [2]	Ki [2]	K m [2]	Effective Dose (ED50), spasmolytic effect, Spontaneous [3]	Effective Dose (ED50), spasmolytic effect, High K+ [4]	viability at 30 min, 539.913 µM ([5]; neutrophils isolated from human whole blood, Conc. 539.913 µM)	viability at 30 min, 696.005 µM ([5]; Conc. 696.005 µM)	viability at 30 min, 491.014 µM ([5]; neutrophils isolated from human whole blood, Conc. 491.014 µM)	viability at 30 min, 456.058 µM ([5]; neutrophils isolated from human whole blood, Conc. 456.058 µM)	viability at 30 min, 501.907 µM ([5]; neutrophils isolated from human whole blood, Conc. 501.907 µM)
CCSc1nc2ccccc2n1CC(=O)N/N=C/c1cccc(O)c1O [Compound 13]	50.58 ± 0.3 µM	Non-competitive	5.0	120 µM	2.3	19 ± 1.7 µM	120 µM	458.926 ± 0.01 µM	836.865 ± 0.05 µM	77.22 ± 0.5%	–	–	–	–
COc1ccc2c3c1O[C@H]1C[C@@H](O)C=C[C@@]31CCN(C)C2 [Galanthamine, reference compound]	–	–	–	–	–	–	–	–	–	–	96 ± 2%	–	–	–
CCSc1nc2ccccc2n1CC(=O)N/N=C/c1ccc(Cl)cc1Cl [Compound 10]	51.23 ± 0.2 µM	Non-competitive	5.0	120 µM	2.1	17 ± 1.3 µM	120 µM	–	1,620.347 ± 0.04 µM	–	–	90.1 ± 2.3%	–	–
CCSc1nc2ccccc2n1CC(=O)N/N=C/c1c2ccccc2cc2ccccc12 [Compound 14]	51.23 ± 0.2 µM	Non-competitive	–	120 µM	–	–	120 µM	592.876 ± 0.12 µM	980.526 ± 0.05 µM	–	–	–	66.6 ± 4%	–
CCSc1nc2ccccc2n1CC(=O)N/N=C\c1ccc(OC)cc1OC [Compound 11]	37.64 ± 0.2 µM	Non-competitive	5.0	120 µM	2.6	14 ± 1.6 µM	120 µM	326.239 ± 0.01 µM	727.765 ± 0.09 µM	–	–	–	–	98 ± 1%
